# Earlier results in article PMC9305358 (The Journal of Biological Chemistry, 2022).
# Where two headings read alike, the source gives them in different places.
# Tests used:
# Mtb cells = settings: ref [19], [20], [21], [22]; cited from earlier work
# ClpC1 = settings: cited from earlier work
# ClpC1 NTD = settings: crystal structure pdb6PBS, ref [25]; cited from earlier work
Substance,toxicity to Mtb cells (Mtb cells),"effect on ClpC1 ATPase activity (ClpC1; ref [20], [21])",binding stoichiometry/mode at ClpC1 NTD (ClpC1 NTD),effect on ClpC1 ATPase activity (ClpC1; ref [22])
ecumicin,highly toxic to Mtb cells,increase ClpC1 ATPase activity,two ecumicin peptides bind to the NTD,
rufomycin,highly toxic to Mtb cells,,,shows no impact
lassomycin,highly toxic to Mtb cells,increase ClpC1 ATPase activity,,
